The term IC50 denotes the concentration that inhibits the measured activity by half.

The results in this text go back to US11339177B2, “Heteroaryl compounds as inhibitors of necrosis, composition and method using the same” (ACCRO BIOSCIENCE INC., priority 2017, dated 2022).

This experiment has as its system HT29 cells. Put plainly: Necroptosis assay in HT29 cells (TNF-α, Smac mimetic, z-VAD; cell viability). The format is cell-based. To be noted: Homo sapiens, HT-29; TNF-α (40 ng/mL), Smacmimetic (100 nM), z-VAD (20 μM), 48 hours. On the procedure:
Human colon cancer HT29 cells were used in a necroptosis assay. For this assay, HT29 cells were added to 96-well plates and then were pre-treated with 10 μM of the test compound for one hour. Then the cells were treated with TNF-α (40 ng/mL), Smacmimetic (100 nM) and z-VAD (20 μM) for 48 hours, and the viability of cells was quantified. DMSO pretreatment group was used as negative controls, Nec-1 pretreatment group was used as positive controls.
In Table 2, (1) “ND” indicates “not detected;” (2) Explanation for inhibition %: Taking Compound B14 as an example, its inhibition % was 30% (50 nM). It means that the when Compound B14 at a concentration of 50 nM was used in the HT29 Cell Assay, the necrosis of cells were inhibited at 30%.

On to `CC(=O)Nc1nc2ccc(-c3cnc4c(c3)N(C(=O)OC3CCCCC3)CCN4C)cc2s1` [Compound B43, cyclohexyl7-(2-acetamidobenzo[d]thiazol-6-yl)-4-methyl-3,4-dihydropyrido[2,3-b]pyrazine-1(2H)-carboxylate], for which half-maximal inhibition (IC50) was put at 13 nM.
For `CC(=O)Nc1nc2ccc(-c3cnc4c(c3)N(C(=O)OC3CCOCC3)CCN4C)cc2s1` [Compound B44] the value was 95 nM; for `CN1CCN(C(=O)OC2CCOCC2)c2cc(-c3ccc4nc(NC(=O)C5CC5)sc4c3)cnc21` [Compound B45], 18 nM; for `CCN1CCN(C(=O)OC2CCCCC2)c2cc(-c3ccc4nc(NC(C)=O)sc4c3)cnc21` [Compound B46], 70 nM.
In the case of `CC(=O)Nc1nc2ccc(-c3cnc4c(c3)N(C(=O)OC3CCCCC3)CCN4C3CC3)cc2s1` [Compound B47], the IC50 came out at 157 nM.
For `CC(=O)Nc1nc2ccc(-c3cnc4c(c3)N(C(=O)OC3CCCCC3)CCC4)cc2s1` [Compound B48, cyclohexyl-7-(2-acetamidobenzo[d]thiazol-6-yl)-3,4-dihydro-1,5-naphthyridine-1(2H)-carboxylate] the value was 2.4 nM; for `CC(=O)Nc1nc2ccc(-c3cnc4c(c3)N(C(=O)OC3CCOCC3)CCC4)cc2s1` [Compound B49], 11.4 nM; for `O=C(Nc1nc2ccc(-c3cnc4c(c3)N(C(=O)OC3CCOCC3)CCC4)cc2s1)C1CC1` [Compound B50, tetrahydro-2H-pyran-4-yl-7-(2-(cyclopropanecarboxamido)benzo[d]thiazol-6-yl)-3,4-dihydro-1,5-naphthyridine-1(2H)-carboxylate], 1.5 nM.
In turn, `O=C(Nc1nc2ccc(-c3cnc4c(c3)N(C(=O)OC3CCOCC3)CCC4)nc2s1)C1CC1` [Compound B51] had an IC50 of 7.2 nM.
For `CC(=O)Nc1nc2ccc(-c3cnc4c(c3)N(C(=O)OC3CCCCC3)CC4)cc2s1` [Compound B52] the value was 5 nM; for `CC(=O)Nc1nc2ccc(-c3cnc4c(c3)N(C(=O)OC3CCOCC3)CC4)cc2s1` [Compound B53, tetrahydro-2H-pyran-4-yl6-(2-acetamidobenzo[d]thiazol-6-yl)-2,3-dihydro-1H-pyrrolo[3,2-b]pyridine-1-carboxylate], 4.7 nM; for `O=C(Nc1nc2ccc(-c3cnc4c(c3)N(C(=O)OC3CCOCC3)CC4)cc2s1)C1CC1` [Compound B54], 2 nM.
For `CC(=O)Nc1cn2cc(-c3cnc4c(c3)N(C(=O)OC3CCOCC3)CC4)ccc2n1` [Compound B55] the value was 49 nM; for `O=C(Nc1cn2cc(-c3cnc4c(c3)N(C(=O)OC3CCOCC3)CC4)ccc2n1)C1CC1` [Compound B56], 4.6 nM.
In turn, `O=C(Nc1cn2nc(-c3cnc4c(c3)N(C(=O)OC3CCOCC3)CC4)ccc2n1)C1CC1` [Compound B58] showed an IC50 of 17 nM.
Next, `O=C(Nc1nc2ccc(-c3cnc4c(c3)N(C(=O)OC3CCOCC3)CC4)nc2s1)C1CC1` [Compound B59, tetrahydro-2H-pyran-4-yl6-(2-(cyclopropanecarboxamido)thiazolo[5,4-b]pyridin-5-yl)-2,3-dihydro-1H-pyrrolo[3,2-b]pyridine-1-carboxylate]: 7 nM; `CC(=O)Nc1nc2ccc(-c3cnc4c(c3)N(C(=O)CC3CCOCC3)CC4)cc2s1` [Compound B61]: 39 nM; `O=C(Nc1nc2ccc(-c3cnc4c(c3)N(C(=O)CC3CCOCC3)CC4)cc2s1)C1CC1` [Compound B62, N-(6-(1-(2-(tetrahydro-2H-pyran-4-yl)acetyl)-2,3-dihydro-1H-pyrrolo[3,2-b]pyridin-6-yl)benzo[d]thiazol-2-yl)cyclopropanecarboxamide]: 1.9 nM.
For `O=C(Nc1cn2cc(-c3cnc4c(c3)N(C(=O)CC3CCOCC3)CC4)ccc2n1)C1CC1` [Compound B64] the value was 53 nM.
